Laboratory results as given in a melting point compilation (Tetko et al.).
Residues, ends and D or L forms follow the SMILES beside them. *: point of attachment. Boc = CC(C)(C)OC(=O)*

SMILES | melting point
CC(C)Cc1ccc(C(=O)O)cc1 | 144 to 146 °C
N#Cc1ccc(C=O)c(F)c1 | 79 to 81 °C
Cc1cc(C(=O)CCl)c(C)n1-c1cc(Cl)cc(Cl)c1 | 113 to 115 °C
Nc1cccc(S(=O)(=O)NCc2ccco2)c1 | 83 to 85 °C
Cc1cc(C(=O)CCl)c(C)n1-c1ccc(C(F)(F)F)cc1 | 115 to 117 °C
CCOC(=O)c1cc(Cl)cc(Br)c1N | 57 to 59 °C
CCN(CC)C(=O)c1ccc(NC(=O)CCl)cc1 | 115 to 117 °C
NCC1(O)CCS(=O)(=O)CC1 | 175 to 177 °C
COc1ccc(-n2c(N)nc3ccccc32)cc1 | 181 to 183 °C
Nc1ccc(N2CCC(O)CC2)cc1 | 171 to 173 °C
Nc1snc2ccc([N+](=O)[O-])cc12 | 198 to 200 °C
Cc1ccc2nc(C3CC3)cc(C(=O)O)c2c1 | 207 to 209 °C
CS(=O)(=O)c1cccc(C(=O)Cl)c1 | 85 to 87 °C
Cc1n[nH]c(C)c1C(C)CC(=O)O (stereo not given) | 195 to 197 °C
Cc1cc(C)c2c(c1)c(C)cc1nnc(S)n12 | 262 to 264 °C
COC(=O)Cn1cc(C(C)=O)nn1 | 79 to 81 °C
Cn1ccnc1C(N)c1ccc(Cl)cc1 (stereo not given) | 45 to 49 °C
Nc1cc2ccccc2c(=O)[nH]1 | 319 to 321 °C
COC(=O)c1cc(N2CCOCC2)ccc1N | 106 to 108 °C
ClCc1nc(-c2ccoc2)no1 | 50 to 52 °C
O=C(O)C1(C(=O)Nc2ccc(F)cc2)CC1 | 179 to 181 °C
O=C(O)CSc1ccccc1[N+](=O)[O-] | 166 to 168 °C

SMILES | melting point
CC(C)Cn1[nH]ccc1=NC(=O)OCC(F)(F)F | 63 to 65 °C
Cc1ccc([N+](=O)[O-])cc1C(C)Cl (stereo not given) | 44 to 46 °C
O=C(O)CCOc1ccc(Br)cc1F | 91 to 93 °C
CCOc1ccc(NS(=O)(=O)c2ccc(C)c(C(=O)O)c2)cc1 | 231 to 233 °C
O=C(O)CCSc1ccccc1F | 118 to 120 °C
CCn1c(SCC(=O)O)nnc1-c1cccs1 | 157 to 159 °C
O=[N+]([O-])c1cc(CCl)c2c(c1)COCO2 | 94 to 96 °C
C=C(C#N)C(O)c1ccc([N+](=O)[O-])cc1 (stereo not given) | 64 to 66 °C
Cc1nn(-c2ccccc2)c(Cl)c1C(=O)O | 232 to 234 °C
N#Cc1ccc2nc(Cl)ccc2c1 | 208 to 210 °C
CCNC(=O)NC1(C(=O)O)CCCC1 | 142 to 144 °C
COc1ccccc1Nc1ncccc1C(=O)O | 175 to 177 °C
O=C(/C=C/c1ccccc1)c1ccc(Br)cc1 | 104 to 106 °C
O=C(O)Cn1[nH]c(=O)c2ccccc2c1=O | 272 to 274 °C
Nc1ccc(C(=O)NCCN2CCOCC2)cc1 | 157 to 159 °C
O=C(O)c1cc(OCC(F)(F)F)cc(OCC(F)(F)F)c1 | 141 to 143 °C
Cn1ccc(C(=O)N2CCC(CO)CC2)cc1=O | 174 to 176 °C
COc1ccccc1NC(=O)c1ccc(N)cc1 | 162 to 164 °C
CC(=O)Nc1scc(-c2cccs2)c1C(=O)O | 227 to 229 °C
Clc1cc(Cl)c(SSc2cc(Cl)c(Cl)cc2Cl)cc1Cl | 140 to 144 °C
CN(C)S(=O)(=O)c1cccc(CO)c1 | 65 to 67 °C
CN(C)S(=O)(=O)c1ccsc1C(=O)O | 108 to 110 °C

SMILES | melting point
CC(Cl)C(=O)Nc1ncccn1 (stereo not given) | 148 to 150 °C
Nc1ccc(S(=O)(=O)Nc2ccc(F)c(Cl)c2)cc1 | 173 to 175 °C
COC(=O)c1cc(CBr)on1 | 59 to 61 °C
O=C1NC2(CCCC2)C(=O)N1Cc1ccc(Cl)nc1 | 169 to 171 °C
O=C1CSC(=S)N1c1cccnc1 | 159 to 161 °C
N#Cc1cccnc1OCC(F)(F)F | 40 to 42 °C
Cc1cc(C(=O)O)ccc1N1CCCS1(=O)=O | 174 to 176 °C
CN(CC(=O)Nc1ccccc1C(F)(F)F)C(=O)CCl | 123 to 125 °C
Nc1cc(S(=O)(=O)N2CCCCC2)ccc1Cl | 129 to 131 °C
CC(C)(C)OC(=O)NCC(=O)NCC(=O)O (Boc-Gly-Gly-OH) | 119 to 121 °C
N#Cc1cnc2ccccc2c1OCCO | 172 to 174 °C
CC(Cl)C(=O)NCc1ccc(F)cc1 (stereo not given) | 90 to 92 °C
Cc1cc(C)n(CC(=O)NN)n1 | 102 to 104 °C
O=S(=O)(Cl)c1cc(Br)c(F)cc1F | 34 to 36 °C
O=C(O)c1ccc(Oc2ccc(F)cc2F)cc1 | 172 to 174 °C
O=C(O)c1cc(/C=C/c2cccc(C(F)(F)F)c2)nc2ccc(Br)cc12 | 310 to 312 °C
Cc1c(CC#N)cccc1[N+](=O)[O-] | 79 to 81 °C
O=C(O)CNS(=O)(=O)c1cccc2c1N=S=N2 | 270 to 272 °C
COC(=O)c1c[nH]cc1-c1ccc([N+](=O)[O-])cc1 | 244 to 246 °C
Cc1nc(C(=O)O)nn1-c1ccccc1C(C)C | 175 to 177 °C
O=C(O)c1cccc(=O)[nH]1 | 239 to 241 °C

Continued, values first:

melting point | SMILES
160 to 162 °C | Cc1ccc(-n2cc(C(=O)O)nn2)cc1
169 to 171 °C | O=C(O)C1CC2CCCCC2N1C(=O)OCC1c2ccccc2-c2ccccc21 (stereo not given)
189 to 191 °C | Sc1nncn1C1CC1
71 to 73 °C | COc1ccc(C(O)c2ccc(OC)cc2C)cc1 (stereo not given)
112 to 114 °C | NC(=O)Cn1ccc(N)n1
115 to 117 °C | Nc1nc(Cc2ccccc2Br)cs1
136 to 138 °C | COC(=O)c1cc(S(N)(=O)=O)ccc1O
33 to 35 °C | O=C1CC2(CCCC2)C(=O)O1
42 to 44 °C | CNC(=O)c1cccc(Cl)n1
55 to 57 °C | Nc1ccc(C(=O)OC2CCCC2)cc1
213 to 215 °C | O=C(O)c1c[nH]c2ncccc12
182 to 184 °C | O=C(O)CNC(=O)c1ccccc1Cl
102 to 104 °C | O=C1COc2c(F)cc(Br)cc21
145 to 147 °C | CC(=O)N(c1ccc(Cl)cc1)c1nc(CCl)cs1
179 to 181 °C | COc1cc(C(=O)O)cc(OC)c1OC(F)F
169 to 171 °C | NNC(=O)CSc1nc2ccccc2o1
155 to 157 °C | Nc1cc(C(=O)O)ccc1OC(F)F
279 to 281 °C | O=c1[nH]cnc2nc(NCc3ccco3)sc12

melting point | SMILES
97 to 99 °C | CN(C)S(=O)(=O)c1cccc(S(=O)(=O)Cl)c1
96 to 98 °C | COC(=O)c1ccc(OCc2ccccc2)c(N)c1
54 to 56 °C | CC(C)c1ccc(CCNC(=O)CCl)cc1
73 to 75 °C | COc1cc(C)c(C(C)=O)cc1OC
66 to 68 °C | O=C(O)CCCSc1ccccc1
63 to 65 °C | CS(=O)(=O)c1ccc(S)cc1
279 to 281 °C | N#CCc1nc2ccc(Br)cc2c(=O)[nH]1
263 to 265 °C | O=C(O)/C=C/c1ccc(S(=O)(=O)NC2CC2)cc1
108 to 110 °C | Nc1ccccc1CN1C(=O)CCC1=O
206 to 208 °C | Cn1c(S)nnc1-c1cncc(N)c1
107 to 109 °C | c1cc2[nH]ccc2cn1
337 to 339 °C | CC1CCc2c(sc3nc(S)nc(S)c23)C1 (stereo not given)
34 to 36 °C | Cn1ccnc1C(=O)c1ccco1
259 to 261 °C | Cc1ccc(-n2[nH]c(C(=O)O)cc2=O)cc1
48 to 50 °C | c1cnc2c(NC3CCC3)cccc2c1
209 to 211 °C | Nc1cc(C(=O)O)ccc1I
79 to 81 °C | N#CCC(=O)c1ccc(Cl)cc1F
